This note sets out measurements from patent US10975093B2, “Fused 1,4-diazepines as BET protein degraders” (THE REGENTS OF THE UNIVERSITY OF MICHIGAN, priority 2016, dated 2021).

Holding throughout (assay type): cell-based
For one test, the system named is MDA-MB-231. The experiment in a line: Cell growth inhibition, CellTiter-Glo Luminescent Cell Viability Assay, MDA-MB-231. Conditions: Homo sapiens, MDA-MB-231, 96 h, MDA-MB-231 cells, 4 days incubation. The method in brief:
(§1)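 Cells were seeded at 2,000/well with serially diluted compound and grown 4 days at 37° C, 5% CO2. Viability was read by CellTiter-Glo luminescence after 10-20 min at room temperature, and IC50 was fitted from the dose-response.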

The subject of the next test is MDA-MB-468. Put plainly: Cell growth inhibition, CellTiter-Glo Luminescent Cell Viability Assay, MDA-MB-468. Conditions: Homo sapiens, 96 h, MDA-MB-468 cells, 4 days incubation. The method, then: (§2) Cell growth inhibitory activity of representative Compounds of the Disclosure was determined in various cell lines using CellTiter-Glo® Luminescent Cell Viability Assay. Cells were seeded in 384-well white opaque cell culture plates at a density of 2,000 cells/well with serially diluted compounds and incubated at 37° C. in an atmosphere of 95% air and 5% CO2 for 4 days. Cell viability was determined using the CellTiter-Glo® Luminescent Cell Viability Assay Kit (Promega, Madison, Wis.) according to the manufacture's instruction. Briefly, a volume of CellTiter-Glo® Reagent equal to the volume of cell culture medium was added to each well, and then the plates were incubated at room temperature for 10-20 minutes. The luminescent signal was measured using a Tecan Infinite M1000 multimode microplate reader (Tecan, Morrisville, N.C.). The half maximal inhibitory concentration (IC50) was calculated using the GraphPad Prism 5 software (GraphPad Software, La Jolla, Calif.).

The next test relates to RS4; 11. The experiment in a line: Cell growth inhibition, CellTiter-Glo Luminescent Cell Viability Assay, RS4;11. The following applies: Homo sapiens, 96 h, RS4;11 cells, 4 days incubation. The method, then: as §2
For the next test, the system named is MOLM-13. The experiment in a line: Cell growth inhibition, CellTiter-Glo Luminescent Cell Viability Assay, MOLM-13. The following applies: Homo sapiens, MOLM-13, 96 h, MOLM-13 cells, 4 days incubation. The essentials:
as §1

For the molecule `Cc1c(C#Cc2cnn(CCCC#Cc3cccc4c3C(=O)N(C3CCC(=O)NC3=O)C4=O)c2)sc2c1C(c1ccc(Cl)cc1)=N[C@@H](C)c1nnc(C)n1-2` (stereo partly drawn) [Cpd. No. 30, 4-(5-(4-(((S)-4-(4-chlorophenyl)-3,6,9-trimethyl-6H-thieno[3,2-f][1,2,4]triazolo[4,3-a][1,4]diazepin-2-yl)ethynyl)-1H-pyrazol-1-yl)pent-1-yn-1-yl)-2-(2,6-dioxopiperidin-3-yl)isoindoline-1,3-dione], the IC50 came to 3.7 nM in the test on MDA-MB-231 and 3.6 nM with MDA-MB-468.

For the molecule `Cc1c(C#Cc2cnn(CCCCNc3cccc4c3CN(C3CCC(=O)NC3=O)C4=O)c2)sc2c1C(c1ccc(Cl)cc1)=N[C@@H](C)c1nnc(C)n1-2` (stereo partly drawn) [compound 145, 3-(4-((4-(4-(((S)-4-(4-chlorophenyl)-3,6,9-trimethyl-6H-thieno[3,2-f][1,2,4]triazolo[4,3-a][1,4]diazepin-2-yl)ethynyl)-1H-pyrazol-1-yl)butyl)amino)-1-oxoisoindolin-2-yl)piperidine-2,6-dione], the 50% inhibitory concentration (IC50) is 0.13 nM in the test with RS4; 11 and 0.39 nM in the test on MDA-MB-231.

For `Cc1c(C#Cc2cnn(CCCCOc3cccc4c3CN(C3CCC(=O)NC3=O)C4=O)c2)sc2c1C(c1ccc(Cl)cc1)=N[C@@H](C)c1nnc(C)n1-2` (stereo partly drawn) [compound 147, 3-(4-(4-(4-(((S)-4-(4-chlorophenyl)-3,6,9-trimethyl-6H-thieno[3,2-f][1,2,4]triazolo[4,3-a][1,4]diazepin-2-yl)ethynyl)-1H-pyrazol-1-yl)butoxy)-1-oxoisoindolin-2-yl)piperidine-2,6-dione], the IC50 in the test with RS4; 11 was 0.05 nM; in the test with MDA-MB-231, 0.08 nM.

Regarding `Cc1c(C#Cc2cnn(CCCC#Cc3cccc4c3CN(C3CCC(C)NC3=O)C4=O)c2)sc2c1C(c1ccc(Cl)cc1)=NCc1nnc(C)n1-2` (stereo not drawn) [compound 161, 4-(5-(4-((4-(4-chlorophenyl)-3,9-dimethyl-6H-thieno[3,2-f][1,2,4]triazolo[4,3-a][1,4]diazepin-2-yl)ethynyl)-1H-pyrazol-1-yl)pent-1-yn-1-yl)-2-(6-methyl-2-oxopiperidin-3-yl)isoindolin-1-one], the figures for the IC50 with RS4; 11 and with MDA-MB-231 were 20.4 nM and 71.8 nM, respectively.

As to `Cc1c(C#Cc2cnn(CCCC#Cc3cccc4c3CN(C3CCC(C)NC3=O)C4=O)c2)sc2c1C(c1ccc(Cl)cc1)=N[C@@H](C)c1nnc(C)n1-2` (stereo partly drawn) [compound 162, 4-(5-(4-(((S)-4-(4-chlorophenyl)-3,6,9-trimethyl-6H-thieno[3,2-f][1,2,4]triazolo[4,3-a][1,4]diazepin-2-yl)ethynyl)-1H-pyrazol-1-yl)pent-1-yn-1-yl)-2-(6-methyl-2-oxopiperidin-3-yl)isoindolin-1-one], the results for the IC50 with RS4; 11 and in the test with MDA-MB-231 were 2.4 nM and 22 nM, respectively.

As for `Cc1c(C#Cc2cnn(CCCC#Cc3cccc4c3C(=O)N(C3CCC(=O)NC3)C4=O)c2)sc2c1C(c1ccc(Cl)cc1)=NCc1nnc(C)n1-2` (stereo not drawn) [compound 163, 4-(5-(4-((4-(4-chlorophenyl)-3,9-dimethyl-6H-thieno[3,2-f][1,2,4]triazolo[4,3-a][1,4]diazepin-2-yl)ethynyl)-1H-pyrazol-1-yl)pent-1-yn-yl)-2-(6-oxopiperidin-3-yl)isoindoline-1,3-dione], the IC50 in the test on RS4; 11 was determined as 216 nM; in the test on MDA-MB-231, 284 nM.

`Cc1c(C#Cc2cnn(CCCCNc3cccc4c3C(=O)N(C3CCC(=O)NC3)C4=O)c2)sc2c1C(c1ccc(Cl)cc1)=NCc1nnc(C)n1-2` (stereo not drawn) [compound 164, 4-((4-(4-((4-(4-chlorophenyl)-3,9-dimethyl-6H-thieno[3,2-f][1,2,4]triazolo[4,3-a][1,4]diazepin-2-yl)ethynyl)-1H-pyrazol-1-yl)butyl)amino)-2-(6-oxopiperidin-3-yl)isoindoline-1,3-dione]: the IC50 with RS4; 11 amounted to 74 nM; in the test with MDA-MB-231 it was 78.5 nM.

With `Cc1c(C#Cc2cnn(CCCCN3C(=O)CCC(N4Cc5c(N)cccc5C4=O)C3=O)c2)sc2c1C(c1ccc(Cl)cc1)=N[C@@H](C)c1nnc(C)n1-2` (stereo partly drawn) [compound 165, 3-(4-amino-1-oxoisoindolin-2-yl)-1-(4-(4-(((S)-4-(4-chlorophenyl)-3,6,9-trimethyl-6H-thieno[3,2-f][1,2,4]triazolo[4,3-a][1,4]diazepin-2-yl)ethynyl)-1H-pyrazol-1-yl)butyl)piperidine-2,6-dione], the concentration for half-maximal inhibition (IC50) with RS4; 11 is 3.7 nM; in the test on MDA-MB-231 it was 12.7 nM.

Take `Cc1ncsc1-c1ccc([C@H](C)NC(=O)[C@@H]2C[C@@H](O)CN2C(=O)[C@@H](NC(=O)COCCCn2cc(C#Cc3sc4c(c3C)C(c3ccc(Cl)cc3)=N[C@@H](C)c3nnc(C)n3-4)cn2)C(C)(C)C)cc1` [compound 199, (2S,4R)-1-((S)-2-(2-(3-(4-(((S)-4-(4-chlorophenyl)-3,6,9-trimethyl-6H-thieno[3,2-f][1,2,4]triazolo[4,3-a][1,4]diazepin-2-yl)ethynyl)-1H-pyrazol-1-yl)propoxy)acetamido)-3,3-dimethylbutanoyl)-4-hydroxy-N-((S)-1-(4-(4-methylthiazol-5-yl)phenyl)ethyl)pyrrolidine-2-carboxamide]: the IC50 with MOLM-13 amounted to 0.5 ± 0.06 nM; with MDA-MB-231, 6.7 nM.

On to `Cc1ncsc1-c1ccc([C@H](C)NC(=O)[C@@H]2C[C@@H](O)CN2C(=O)[C@@H](NC(=O)COCCOCCOCCn2cc(C#Cc3sc4c(c3C)C(c3ccc(Cl)cc3)=N[C@@H](C)c3nnc(C)n3-4)cn2)C(C)(C)C)cc1` [compound 200, (2S,4R)-1-((S)-2-(tert-butyl)-14-(4-(((S)-4-(4-chlorophenyl)-3,6,9-trimethyl-6H-thieno[3,2-f][1,2,4]triazolo[4,3-a][1,4]diazepin-2-yl)ethynyl)-1H-pyrazol-1-yl)-4-oxo-6,9,12-trioxa-3-azatetradecanoyl)-4-hydroxy-N-((S)-1-(4-(4-methylthiazol-5-yl)phenyl)ethyl)pyrrolidine-2-carboxamide], for which the IC50 in the test on MOLM-13 amounted to 0.34 ± 0.03 nM; in the test on MDA-MB-231 it was 3.1 nM.

Take `Cc1ncsc1-c1ccc([C@H](C)NC(=O)[C@@H]2C[C@@H](O)CN2C(=O)[C@@H](NC(=O)COCCOCCn2cc(C#Cc3sc4c(c3C)C(c3ccc(Cl)cc3)=N[C@@H](C)c3nnc(C)n3-4)cn2)C(C)(C)C)cc1` [compound 201, (2S,4R)-1-((S)-2-(2-(2-(2-(4-(((S)-4-(4-chlorophenyl)-3,6,9-trimethyl-6H-thieno[3,2-f][1,2,4]triazolo[4,3-a][1,4]diazepin-2-yl)ethynyl)-1H-pyrazol-1-yl)ethoxy)ethoxy)acetamido)-3,3-dimethylbutanoyl)-4-hydroxy-N-((S)-1-(4-(4-methylthiazol-5-yl)phenyl)ethyl)pyrrolidine-2-carboxamide]: the results for the IC50 in the test on MOLM-13 and with MDA-MB-231 were 2.1 ± 0.32 nM and 24.9 nM, respectively.

Regarding `Cc1ncsc1-c1ccc([C@H](C)NC(=O)[C@@H]2C[C@@](C)(O)CN2C(=O)[C@@H](NC(=O)COCCCn2cc(C#Cc3sc4c(c3C)C(c3ccc(Cl)cc3)=N[C@@H](C)c3nnc(C)n3-4)cn2)C(C)(C)C)cc1` [compound 205, (2S,4R)-1-((S)-2-(2-(3-(4-(((S)-4-(4-chlorophenyl)-3,6,9-trimethyl-6H-thieno[3,2-f][1,2,4]triazolo[4,3-a][1,4]diazepin-2-yl)ethynyl)-1H-pyrazol-1-yl)propoxy)acetamido)-3,3-dimethylbutanoyl)-4-hydroxy-4-methyl-N-((S)-1-(4-(4-methylthiazol-5-yl)phenyl)ethyl)pyrrolidine-2-carboxamide], the values for the IC50 in the test on MOLM-13 and in the test on MDA-MB-231 were 42.3 nM and 93 nM, respectively.
